The supplement of paper PMC10307832

Legend:
Assay in all cases: relative viability (nuclei count vs DMSO), 5 days (fraction); higher = more cells survive
[1] = compound: C1COCCN1C2=NC(=NC3=C2OC4=C3C=CC=N4)C5=CC(=CC=C5)NC(=O)C6=CN=C(C=C6)N + COc1cc2c(Oc3ccc(NC(=O)C4(C(=O)Nc5ccc(F)cc5)CC4)cc3F)ccnc2cc1OCCCN1CCOCC1 [Foretinib] (partner 0.25 µM)
In short: (§1)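 Lung cancer cell lines were seeded in 1536-well plates and dosed by pin tool the next day, with either a single drug or a fixed anchor-drug dose combined with five library-drug doses (not always all listed) spaced in √10 steps. Five days later, one step fixed the cells and stained their nuclei (final 0.05% Triton X-100, 1% formaldehyde, 1 ug/ml Hoechst), and nuclei were counted on 4× images. Relative viability is the nuclei count in treated wells divided by the count in vehicle wells, and each value is the median of duplicate plates.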

[2] = compound: C1COCCN1C2=NC(=NC3=C2OC4=C3C=CC=N4)C5=CC(=CC=C5)NC(=O)C6=CN=C(C=C6)N + C[C@]1(O)C[C@@H](c2nc(-c3ccc4ccc(-c5ccccc5)nc4c3)c3c(N)nccn32)C1 [Linsitinib] (partner 1 µM)
In short: as §1

[3] = compound: Nc1ccccc1NC(=O)c1ccc(CNC(=O)OCc2cccnc2)cc1 [Entinostat] + C[C@]1(O)C[C@@H](c2nc(-c3ccc4ccc(-c5ccccc5)nc4c3)c3c(N)nccn32)C1 [Linsitinib] (partner 1 µM)
In short: as §1

[4] = compound: Nc1ccccc1NC(=O)c1ccc(CNC(=O)OCc2cccnc2)cc1 [Entinostat] + Cc1cc(Nc2cc(N3CCN(C)CC3)nc(Sc3ccc(NC(=O)C4CC4)cc3)n2)n[nH]1 [Tozasertib] (partner 0.1 µM)
In short: as §1

NCI-H2347
relative viability ([1]; first compound 0.02 µM): 1.09
relative viability ([1]; first compound 0.06325 µM): 0.962
relative viability ([1]; first compound 0.2 µM): 0.861
relative viability ([1]; first compound 0.6325 µM): 1.07
relative viability ([1]; first compound 2 µM): 0.657
relative viability ([2]; first compound 0.02 µM): 0.917
relative viability ([2]; first compound 0.06325 µM): 0.966
relative viability ([2]; first compound 0.2 µM): 0.979
relative viability ([2]; first compound 0.6325 µM): 0.98
relative viability ([2]; first compound 2 µM): 0.877
relative viability ([3]; first compound 0.02 µM): 0.987
relative viability ([3]; first compound 0.06325 µM): 0.984
relative viability ([3]; first compound 0.2 µM): 0.903
relative viability ([3]; first compound 0.6325 µM): 0.408
relative viability ([3]; first compound 2 µM): 0.349
relative viability ([4]; first compound 0.02 µM): 0.355
relative viability ([4]; first compound 0.06325 µM): 0.382
relative viability ([4]; first compound 0.2 µM): 0.345
relative viability ([4]; first compound 0.6325 µM): 0.175
relative viability ([4]; first compound 2 µM): 0.18

NCI-H2405
relative viability ([1]; first compound 0.02 µM): 0.99
relative viability ([1]; first compound 0.06325 µM): 1.04
relative viability ([1]; first compound 0.2 µM): 1.07
relative viability ([1]; first compound 0.6325 µM): 1.02
relative viability ([1]; first compound 2 µM): 0.981
relative viability ([2]; first compound 0.02 µM): 0.828
relative viability ([2]; first compound 0.06325 µM): 0.946
relative viability ([2]; first compound 0.2 µM): 0.97
relative viability ([2]; first compound 0.6325 µM): 0.905
relative viability ([2]; first compound 2 µM): 0.795
relative viability ([3]; first compound 0.02 µM): 0.977
relative viability ([3]; first compound 0.06325 µM): 1.11
relative viability ([3]; first compound 0.2 µM): 1.04
relative viability ([3]; first compound 0.6325 µM): 0.896
relative viability ([3]; first compound 2 µM): 0.789
relative viability ([4]; first compound 0.02 µM): 0.736
relative viability ([4]; first compound 0.06325 µM): 0.78
relative viability ([4]; first compound 0.2 µM): 0.607
relative viability ([4]; first compound 0.6325 µM): 0.524
relative viability ([4]; first compound 2 µM): 0.319

NCI-H3122
relative viability ([1]; first compound 0.02 µM): 0.991
relative viability ([1]; first compound 0.06325 µM): 0.923
relative viability ([1]; first compound 0.2 µM): 0.883
relative viability ([1]; first compound 0.6325 µM): 1.14
relative viability ([1]; first compound 2 µM): 0.807
relative viability ([2]; first compound 0.02 µM): 0.93
relative viability ([2]; first compound 0.06325 µM): 1.11
relative viability ([2]; first compound 0.2 µM): 0.976
relative viability ([2]; first compound 0.6325 µM): 0.988
relative viability ([2]; first compound 2 µM): 0.821
relative viability ([3]; first compound 0.02 µM): 1.02
relative viability ([3]; first compound 0.06325 µM): 1.03
relative viability ([3]; first compound 0.2 µM): 1.07
relative viability ([3]; first compound 0.6325 µM): 1.08
relative viability ([3]; first compound 2 µM): 0.868
relative viability ([4]; first compound 0.02 µM): 0.334
relative viability ([4]; first compound 0.06325 µM): 0.36
relative viability ([4]; first compound 0.2 µM): 0.479
relative viability ([4]; first compound 0.6325 µM): 0.275
relative viability ([4]; first compound 2 µM): 0.102

PC-3 [JPC-3]
relative viability ([1]; first compound 0.02 µM): 1.14
relative viability ([1]; first compound 0.06325 µM): 1.05
relative viability ([1]; first compound 0.2 µM): 0.991
relative viability ([1]; first compound 0.6325 µM): 1.07
relative viability ([1]; first compound 2 µM): 0.772
relative viability ([2]; first compound 0.02 µM): 0.994
relative viability ([2]; first compound 0.06325 µM): 0.969
relative viability ([2]; first compound 0.2 µM): 0.969
relative viability ([2]; first compound 0.6325 µM): 0.918
relative viability ([2]; first compound 2 µM): 0.908
relative viability ([3]; first compound 0.02 µM): 0.956
relative viability ([3]; first compound 0.06325 µM): 0.907
relative viability ([3]; first compound 0.2 µM): 0.728
relative viability ([3]; first compound 0.6325 µM): 0.716
relative viability ([3]; first compound 2 µM): 0.467
relative viability ([4]; first compound 0.02 µM): 0.898
relative viability ([4]; first compound 0.06325 µM): 0.786
relative viability ([4]; first compound 0.2 µM): 0.685
relative viability ([4]; first compound 0.6325 µM): 0.59
relative viability ([4]; first compound 2 µM): 0.326

PC-14
relative viability ([1]; first compound 0.02 µM): 0.965
relative viability ([1]; first compound 0.06325 µM): 1.17
relative viability ([1]; first compound 0.2 µM): 1.04
relative viability ([1]; first compound 0.6325 µM): 0.977
relative viability ([1]; first compound 2 µM): 0.755
relative viability ([2]; first compound 0.02 µM): 0.991
relative viability ([2]; first compound 0.06325 µM): 0.999
relative viability ([2]; first compound 0.2 µM): 0.953
relative viability ([2]; first compound 0.6325 µM): 0.86
relative viability ([2]; first compound 2 µM): 0.502
relative viability ([3]; first compound 0.02 µM): 1.03
relative viability ([3]; first compound 0.06325 µM): 0.947
relative viability ([3]; first compound 0.2 µM): 1.03
relative viability ([3]; first compound 0.6325 µM): 0.364
relative viability ([3]; first compound 2 µM): 0.16
relative viability ([4]; first compound 0.02 µM): 0.56
relative viability ([4]; first compound 0.06325 µM): 0.629
relative viability ([4]; first compound 0.2 µM): 0.325
relative viability ([4]; first compound 0.6325 µM): 0.104
relative viability ([4]; first compound 2 µM): 0.0609

RERF-LC-KJ
relative viability ([1]; first compound 0.02 µM): 0.879
relative viability ([1]; first compound 0.06325 µM): 0.953
relative viability ([1]; first compound 0.2 µM): 0.888
relative viability ([1]; first compound 0.6325 µM): 0.883
relative viability ([1]; first compound 2 µM): 0.624
relative viability ([2]; first compound 0.02 µM): 0.958
relative viability ([2]; first compound 0.06325 µM): 0.961
relative viability ([2]; first compound 0.2 µM): 0.898
relative viability ([2]; first compound 0.6325 µM): 0.863
relative viability ([2]; first compound 2 µM): 0.63
relative viability ([3]; first compound 0.02 µM): 0.912
relative viability ([3]; first compound 0.06325 µM): 0.766
relative viability ([3]; first compound 0.2 µM): 0.885
relative viability ([3]; first compound 0.6325 µM): 0.536
relative viability ([3]; first compound 2 µM): 0.239
relative viability ([4]; first compound 0.02 µM): 0.417
relative viability ([4]; first compound 0.06325 µM): 0.4
relative viability ([4]; first compound 0.2 µM): 0.349
relative viability ([4]; first compound 0.6325 µM): 0.215
relative viability ([4]; first compound 2 µM): 0.198

SK-LU-1
relative viability ([1]; first compound 0.02 µM): 0.826
relative viability ([1]; first compound 0.06325 µM): 0.916
relative viability ([1]; first compound 0.2 µM): 0.83
relative viability ([1]; first compound 0.6325 µM): 0.725
relative viability ([1]; first compound 2 µM): 0.557
relative viability ([2]; first compound 0.02 µM): 1.23
relative viability ([2]; first compound 0.06325 µM): 1.13
relative viability ([2]; first compound 0.2 µM): 1.02
relative viability ([2]; first compound 0.6325 µM): 1.18
relative viability ([2]; first compound 2 µM): 0.574
relative viability ([3]; first compound 0.02 µM): 1.1
relative viability ([3]; first compound 0.06325 µM): 1.04
relative viability ([3]; first compound 0.2 µM): 0.909
relative viability ([3]; first compound 0.6325 µM): 0.657
relative viability ([3]; first compound 2 µM): 0.516
relative viability ([4]; first compound 0.02 µM): 0.335
relative viability ([4]; first compound 0.06325 µM): 0.337
relative viability ([4]; first compound 0.2 µM): 0.278
relative viability ([4]; first compound 0.6325 µM): 0.182
relative viability ([4]; first compound 2 µM): 0.169

SK-MES-1
relative viability ([1]; first compound 0.02 µM): 0.934
relative viability ([1]; first compound 0.06325 µM): 1.17
relative viability ([1]; first compound 0.2 µM): 0.929
relative viability ([1]; first compound 0.6325 µM): 0.792
relative viability ([1]; first compound 2 µM): 0.662
relative viability ([2]; first compound 0.02 µM): 0.99
relative viability ([2]; first compound 0.06325 µM): 1.24
relative viability ([2]; first compound 0.2 µM): 1.13
relative viability ([2]; first compound 0.6325 µM): 1.04
relative viability ([2]; first compound 2 µM): 0.791
relative viability ([3]; first compound 0.02 µM): 1.11
relative viability ([3]; first compound 0.06325 µM): 1.05
relative viability ([3]; first compound 0.2 µM): 1.23
relative viability ([3]; first compound 0.6325 µM): 0.983
relative viability ([3]; first compound 2 µM): 0.69
relative viability ([4]; first compound 0.02 µM): 0.849
relative viability ([4]; first compound 0.06325 µM): 0.826
relative viability ([4]; first compound 0.2 µM): 0.925
relative viability ([4]; first compound 0.6325 µM): 0.673
relative viability ([4]; first compound 2 µM): 0.324

SW 1573
relative viability ([1]; first compound 0.02 µM): 0.931
relative viability ([1]; first compound 0.06325 µM): 1.07
relative viability ([1]; first compound 0.2 µM): 1.09
relative viability ([1]; first compound 0.6325 µM): 0.877
relative viability ([1]; first compound 2 µM): 0.688
relative viability ([2]; first compound 0.02 µM): 0.75
relative viability ([2]; first compound 0.06325 µM): 0.743
relative viability ([2]; first compound 0.2 µM): 0.824
relative viability ([2]; first compound 0.6325 µM): 0.756
relative viability ([2]; first compound 2 µM): 0.544
relative viability ([3]; first compound 0.02 µM): 0.721
relative viability ([3]; first compound 0.06325 µM): 0.93
relative viability ([3]; first compound 0.2 µM): 0.811
relative viability ([3]; first compound 0.6325 µM): 0.884
relative viability ([3]; first compound 2 µM): 0.609
relative viability ([4]; first compound 0.02 µM): 0.237
relative viability ([4]; first compound 0.06325 µM): 0.186
relative viability ([4]; first compound 0.2 µM): 0.242
relative viability ([4]; first compound 0.6325 µM): 0.179
relative viability ([4]; first compound 2 µM): 0.164
